Consider 3 compounds from ChEMBL document CHEMBL4808181, “Hydrophobic Pocket Occupation Design of Difluoro-Biphenyl-Diarylpyrimidines as Non-Nucleoside HIV-1 Reverse Transcriptase Inhibitors: from N-Alkylation to Methyl Hopping on the Pyrimidine Ring” (J Med Chem, 2021).

Where only a bound is given, the exact number is not on record here.

Data set [1] is described as follows: Selectivity index, ratio of CC50 for cytotoxicity against human MT-4 cells to EC50 for inhibition of HIV-1 p66/51 reverse transcriptase L100I mutant. In kind it is toxicity, cell-based. Particulars: read-out: Ratio CC50/EC50.
The target in data set [2] is Human immunodeficiency virus type 1 reverse transcriptase (Human immunodeficiency virus 1, UniProt Q72547). Nature of the data set: Inhibition of recombinant wild type p66/p51 HIV1 reverse transcriptase incubated for 40 mins by picogreen dye-based spectrofluorometric analysis.
A short description of data set [3]: Cytotoxicity against in human MT-4 cells after 5 days by MTT assay. The class given is cell-based, MT4. Particulars: time 5 day. On the technique in general: Tetrazolium assays rely on reduction of a dye to a coloured formazan, in cell work by metabolically active cells.
Data set [4] in a line: Selectivity index, ratio of CC50 for human MT-4 cells to EC50 for HIV-1 infected in MT-4 cells. In kind it is toxicity, cell-based. Conditions: read-out: Ratio CC50/EC50.
Data set [5] deals with Human immunodeficiency virus 1. The data set can be described thus: Antiviral activity against HIV-1 infected in human MT-4 cells assessed as reduction in virus-induced cytopathic effect incubated for 5 days by MTT assay. The class given is functional, organism-based. Particulars: Human immunodeficiency virus 1, MT4, 120 h. For orientation: Damage to the host cells serves as the signal in cytopathic effect assays.

Data set [6] can be described thus: Inhibition of HIV-1 p66/p51 reverse transcriptase E138K mutant incubated for 40 mins by picogreen dye-based spectrofluorometric analysis. Set-up: species or system Human immunodeficiency virus 1.
Data set [7] addresses Human immunodeficiency virus type 1 reverse transcriptase (Human immunodeficiency virus 1, UniProt Q72547, L100I). Nature of the data set: Inhibition of HIV-1 p66/p51 reverse transcriptase L100I mutant incubated for 40 mins by picogreen dye-based spectrofluorometric analysis.
Data set [8] in a line: Selectivity index, ratio of CC50 for cytotoxicity against human MT-4 cells to EC50 for inhibition of HIV-1 p66/51 reverse transcriptase Y188L mutant. In kind it is toxicity, cell-based. Conditions: read-out: Ratio CC50/EC50.
The nature of data set [9]: Selectivity index, ratio of CC50 for cytotoxicity against human MT-4 cells to EC50 for inhibition of HIV-1 p66/51 reverse transcriptase Y181C mutant. Particulars: read-out: Ratio CC50/EC50. In kind it is toxicity, cell-based.
A short description of data set [10]: Inhibition of HIV-1 p66/p51 reverse transcriptase Y188L mutant incubated for 40 mins by picogreen dye-based spectrofluorometric analysis. Set-up: species or system Human immunodeficiency virus 1.
In data set [11] the target is Human immunodeficiency virus type 1 reverse transcriptase (Human immunodeficiency virus 1, UniProt Q72547, Y181C). The data set can be described thus: Inhibition of HIV-1 p66/p51 reverse transcriptase Y181C mutant incubated for 40 mins by picogreen dye-based spectrofluorometric analysis.
Data set [12] addresses Human immunodeficiency virus type 1 reverse transcriptase (Human immunodeficiency virus 1, UniProt Q72547, K103N). Nature of the data set: Inhibition of HIV-1 p66/p51 reverse transcriptase K103N mutant incubated for 40 mins by picogreen dye-based spectrofluorometric analysis.
Data set [13] in a line: Selectivity index, ratio of CC50 for cytotoxicity against human MT-4 cells to EC50 for inhibition of HIV-1 p66/51 reverse transcriptase E138K mutant. Conditions: read-out: Ratio CC50/EC50. The class given is toxicity, cell-based.
Data set [14] in a line: Selectivity index, ratio of CC50 for cytotoxicity against human MT-4 cells to EC50 for inhibition of HIV-1 p66/51 reverse transcriptase K103N mutant. The class given is toxicity, cell-based. Conditions: read-out: Ratio CC50/EC50.

For orientation: IC50 means the concentration that gives 50% inhibition. What is called CC50 is the concentration that lowers cell viability or growth by half. A lower CC50 goes with greater toxicity to the cells. One may read the EC50 as the concentration needed to bring the measured effect to its halfway point. For the compound `N#Cc1ccc(Nc2nccc(N(CCCO)c3c(F)cc(-c4ccc(C#N)cc4)cc3F)n2)cc1`, the selectivity ratio came out at 1670 in data set [1]; 10300 in data set [4]; 84 in data set [8]; 1980 in [9]; 3110 in [13]; 1270 in [14]. Moreover, in data set [2], the IC50 is 30 nM. The compound also displayed a CC50 at 120 h in data set [3] of 68 µM. The EC50 in [5] amounted to 7 nM; in data set [6] it was 21.9 nM; in data set [7], 40.9 nM; in [10] it was 813 nM; in data set [11], 34.4 nM; in data set [12] it was 53.4 nM.

`CC(=O)N(c1ccnc(Nc2ccc(C#N)cc2)n1)c1c(F)cc(-c2ccc(C#N)cc2)cc1F`: the selectivity ratio is greater than 4140 in [1]; greater than 34700 in data set [4]; greater than 490 in data set [8]; greater than 9800 in data set [9]; greater than 29100 in data set [13]; greater than 24500 in data set [14]. Besides, the IC50 in [2] worked out at 40 nM. The same compound gave a CC50 at 120 h in data set [3] greater than 268 µM. Further, the EC50 in [5] amounted to 8 nM; in data set [6] it was 9.23 nM; in [7], 64.8 nM; in data set [10], 548 nM; in data set [11] it was 27.4 nM; in [12], 10.9 nM.

`CCS(=O)(=O)N(c1ccnc(Nc2ccc(C#N)cc2)n1)c1c(F)cc(-c2ccc(C#N)cc2)cc1F`: the selectivity ratio in [1] is greater than 1230; in data set [4], greater than 5140; in data set [8] it was greater than 52; in data set [9], greater than 2110; in [13], greater than 3460; in [14], greater than 3090. Moreover, the IC50 in data set [2] was found to be 200 nM. In data set [3], this compound showed a CC50 at 120 h greater than 125 µM. Besides, the EC50 in data set [5] stood at 47 nM; in data set [6], 70 nM; in [7] it was 196 nM; in data set [10], 4680 nM; in data set [11] it was 114 nM; in data set [12], 78 nM.
